Measurements from patent US20160199354A1, “METHODS FOR OLMESARTAN DOSING BY AUC” (Autotelic LLC, priority 2015, published 2016).

How the values were obtained:
[1] = set-up: species or system healthy subjects (Asian and non-Asian); conditions: in vivo
Text: PubMed database was searched to identify relevant scientific and review articles from May 2001 to June 2015 using the search term olmesartan PK. Reference lists of included articles were reviewed to locate additional references of interest. PK studies with single dose AUC of olmesartan medoxomil in healthy subjects were selected. Olmesartan medoxomil AUC from co-administration of olmesartan medoxomil with other drugs or FDC containing olmesartan medoxomil were also included if there was no known drug-drug interaction (DDI). The pharmacokinetic datasets for olmesartan were obtained from published clinical studies across Asian and non-Asian subjects with a dose range from 10 to 160 mg. More than 80% of the studies reported AUC in arithmetic mean. […] PK and demographic data from a total of 895 healthy subjects from 13 clinical studies were included in the final analysis Schwocho L R and Masonson H N. Pharmacokinetics of CS866, a new angiotensin II receptor block, in healthy subjects. J Clin Pharmacol 2001; 41:515-27; von Bergmann K, Laeis P, Pilchler K, Sudhop T, Schwocho L R, Gonzalez L. Olmesartan medoxomil: influence of age, renal and hepatic function on the PK of olmesartan medoxomil. […]

[2] = system: patients with hypertension; experiment: Dose response of blood pressure reduction, analysis of 21 published clinical studies; type: in vivo, human; conditions: olmesartan medoxomil 5 to 80 mg monotherapy, 21 clinical studies
Description: PubMed database was searched to identify relevant scientific and review articles from June 2001 to June 2015 using the search terms olmesartan efficacy, response, effect/clinical trial. Reference lists of included articles were reviewed to locate additional references of interest. PD studies with olmesartan medoxomil dose range from 5 to 80 mg monotherapy were selected. PD response and demographic data from a total of 10,770 patients with hypertension in 21 clinical studies were included in the analysis (Oparil S, Williams D, Chrysant S G, Marbury T C, Neutel J. (2001). Comparative efficacy of olmesartan, losartan, valsartan, and irbesartan in the control of essential hypertension. J Clin Hypertens (Greenwich) 2001; 3(5):283-318; Püchler K, Laeis P, Stumpe K O. Blood pressure response, but not adverse event incidence, correlates with dose of angiotensin II antagonist. J Hypertens Suppl 2001 June; 19(1):S41-8; Neutel J M, Elliott W J, Izzo J L, Chen C L, Masonson H N. Antihypertensive efficacy of olmesartan medoxomil, a new angiotensin II receptor antagonist, as assessed by ambulatory blood pressure measurements. […] J Hum Hypertens 2002; 16(Suppl 2):S24-8; Brunner H R, Stumpe K O, Januszewicz A. Antihypertensive efficacy of olmesartan medoxomil and candesartan cilexetil assessed by 24-hour ambulatory blood pressure monitoring in patients with essential hypertension. […]

[3] = system: Korean subjects with hypertension associated with dyslipidemia; experiment: Phase 3 clinical study, variability of SBP and DBP reduction; type: in vivo, human (Korean subjects); conditions: once daily up to 8 weeks; olmesartan medoxomil 40 mg
Description: Hypertension therapy effectiveness was evaluated by evaluating the variability of systolic blood pressure (SBP) and diastolic blood pressure (DBP) reduction following dosing with olmesartan single agent (OM) or a fixed dosage composition comprising olmesartan and rosuvastatin (OM/RC FDC). […] The study was a multi-site, randomized, double-blind, placebo-controlled, factorial, 4 arm, 8 week Phase 3 clinical study of Korean subjects with hypertension associated with dyslipidemia aged between 20 and 80 years. Following a 4-week therapeutic lifestyle-change period that included a washout period, eligible patients were randomized in a 2:1:1:1 ratio to receive either OM/RC FDC, olmesartan medoxomil 40 mg, rosuvastatin calcium 20 mg, or placebo, once daily, for up to 8 weeks. A total of 183 subjects were randomized (72 subjects in OM/RC FDC, 39 subjects in olmesartan medoxomil 40 mg, 38 subjects in rosuvastatin calcium 20 mg, and 34 subjects in placebo). Among the 183 randomized subjects, 181 subjects took the investigational drug (ST-101/OM/RC FDC), 162 subjects completed the study, and 21 of […] subjects were discontinued from the study. The SBP and DBP reduction was highly variable. FIG. 2 compares the variability of systolic blood pressure (SBP) reduction after dosing with olmesartan single agent (olmesartan) or olmesartan/rosuvastatin fixed dose combination (OM/RC FDC, ST-101). […]

[4] = set-up: species or system Korean healthy males; conditions: in vivo
Description: Drug exposure as AUC was studied among Korean healthy males aged between 20 and 50 years in two clinical studies: (1) a randomized, open-label, multiple-dose, cross-over study of 36 subjects divided into 6 cohorts and treated over 3 periods (subjects were administered either 1 tablet of 40 mg olmesartan medoxomil, 1 tablet of 20 mg rosuvastatin calcium, or a 1 tablet each of both agents (fixed dosage composition, single dose form) orally every 24 hours for 7 days, with an 8-day washout period separating the individual treatment courses) and (2) a randomized, open-label, single-dose, cross-over study of 58 subjects divided into 2 cohorts and treated over 2 periods (Son H, Roh H, Lee D, Chang H, Kim J, Yun C, et al. Pharmacokinetics of rosuvastatin/olmesartan fixed-dose combination: a single-dose, randomized, open-label, 2-period crossover study in healthy Korean subjects. Clin Ther 2013; 35:915-22) (one tablet of ST-101, also known as olmesartan/rosuvastatin FDC, tablet of 40 mg olmesartan medoxomil/20 mg rosuvastatin calcium was administered once orally as the test drug, or 1 tablet each of 40 mg olmesartan medoxomil and 20 mg rosuvastatin calcium was co-administered once orally as the comparator; eligible subjects were randomly assigned to 2 groups (test arm vs comparator arm) in a 1:1 ratio; each subject received a single dose of the FDC or the comparator orally in a fasted state, with a 7-day washout period between the administrations.
A total of 34 volunteers in study 1 and 54 volunteers in study 2 were evaluated for olmesartan pharmacokinetic (PK) analysis. For PK analyses, blood samples were collected at 0 (pre-dose), 0.5, 2, 2.5, 3, 4, 5, 6, 7, 8, 10, 12, 16, 24, 48 hour after dosing of olmesartan either as FDC or as single agent.
FIG. 1 compares individual values of olmesartan AUC when dosed as either olmesartan single agent (OM) or olmesartan/rosuvastatin (OM/RC) fixed dose composition (FDC). […] The coefficient of variations were 29.95% and 24.42% for olmesartan single agent and OM/RC FDC, respectively. The tabulated summary of the data including Gaussian tests are shown below in Table 1.
FIG. 6 illustrates the linear correlation between the first and second pharmacokinetic determinations (AUC) for olmesartan. The linear regression is described by the following equation: Y=0.9782*X. The p value of significant deviation from 0 is less than 0.0001.

slope of linear regression between first and second AUC determinations (Y=slope*X) [4]: 0.9782
coefficient of variation of olmesartan AUC ([4]; po, 40 mg): 29.95%
olmesartan AUC, 25% Percentile ([4]; po, 40 mg): 6317
olmesartan AUC, 75% Percentile ([4]; po, 40 mg): 8916
olmesartan AUC, Maximum ([4]; po, 40 mg): 17026
olmesartan AUC, Mean ([4]; po, 40 mg): 7908
olmesartan AUC, Median ([4]; po, 40 mg): 7450 ng·h/mL
olmesartan AUC, Minimum ([4]; po, 40 mg): 3899
SMILES: CCCc1nc(C(C)(C)O)c(C(=O)OCc2oc(=O)oc2C)n1Cc1ccc(-c2ccccc2-c2nnn[nH]2)cc1 [OM Single Agent, olmesartan medoxomil]
AUC among Asian subjects versus non-Asian subjects [1]: comparable to AUC in non-Asian subjects at the same dose level
dependence of AUC on dose [1]: linear dose-dependent increase in AUC from 10 to 160 mg
relationship between DBP reduction and dose (regression analysis) [2]: very shallow insignificant relationship
correlation between SBP reduction and dose (regression analysis) ([2]; p=0.04): only weak correlation
coefficient of variation for DBP reduction [3]: 79.25%
coefficient of variation for SBP reduction [3]: 78.24%
